Test results from patent US20250230193A1, “CYCLIC COMPOUND HAVING SELECTIVE KRAS INHIBITORY EFFECT ON HRAS AND NRAS” (CHUGAI SEIYAKU KABUSHIKI KAISHA, priority 2022, published 2025).

How the values were obtained:
[1] = molecular target: GDP-bound NRAS wild-type protein (Homo sapiens, UniProt P01111); assay: Binding to NRAS by surface plasmon resonance (SPR), Single Cycle Kinetics; conditions: SPR; KD ratio class
[2] = test system: human lung cancer strain NCI-H441; assay: cells; conditions: NCI-H441, 96 h, read-out: NCI-H441 IC50 (nM)
[3] = molecular target: GDP-bound HRAS wild-type protein (Homo sapiens, UniProt P01112); assay: Binding to HRAS by surface plasmon resonance (SPR), Single Cycle Kinetics; conditions: SPR; KD ratio class
Sequence of GDP-bound HRAS wild-type protein (P01112 whole entry): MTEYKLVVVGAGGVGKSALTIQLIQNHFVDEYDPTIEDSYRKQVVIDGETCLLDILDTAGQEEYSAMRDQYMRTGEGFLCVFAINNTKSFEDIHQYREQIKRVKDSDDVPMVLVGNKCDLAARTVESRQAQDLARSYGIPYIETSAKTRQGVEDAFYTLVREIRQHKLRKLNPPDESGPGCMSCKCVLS

Sequence of GDP-bound NRAS wild-type protein (P01111 whole entry): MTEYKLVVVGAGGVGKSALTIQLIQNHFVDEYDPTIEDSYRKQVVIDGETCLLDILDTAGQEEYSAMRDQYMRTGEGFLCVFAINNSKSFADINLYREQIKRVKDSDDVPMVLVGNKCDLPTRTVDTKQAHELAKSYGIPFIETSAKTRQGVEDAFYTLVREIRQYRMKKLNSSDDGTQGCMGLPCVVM

| Compound | NRAS/KRAS (ratio of KD value for GDP-bound NRAS wild-type protein to KD value for KRAS) [1] | IC50 [2] [nM] | HRAS/KRAS (ratio of KD value for GDP-bound HRAS wild-type protein to KD value for KRAS) [3] |
| --- | --- | --- | --- |
| CCC[C@H]1C(=O)N[C@@H]([C@@H](C)CC)C(=O)N(C)CC(=O)N(C)[C@H]2C/C=C\CCN(C2=O)[C@@H](Cc2ccc(C(F)(F)F)cc2)C(=O)N(C)CC(=O)N[C@@H](CCc2ccc(Cl)c(Cl)c2)C(=O)N2C[C@H](OCC)C[C@H]2C(=O)NC2(CCC2)C(=O)N(C)[C@@H](C(CC)CC)C(=O)N(C)[C@H](C(=O)N(C)C)CC(=O)N1C [PP1216] | AA (a compound having 20 or more is denoted as AA) | 19.8 | A (a compound having 10 or more and less than 20 is denoted as A) |
| CCO[C@@H]1C[C@H]2C(=O)NC3(CCC3)C(=O)N(C)[C@@H](C(CC)CC)C(=O)N(C)[C@H](C(=O)N(C)C)CC(=O)N(C)[C@@H](CC(C)C)C(=O)N[C@@H]([C@@H](C)CC)C(=O)N(C)CC(=O)N(C)[C@H]3C/C=C\CCN(C3=O)[C@@H](Cc3ccc(C(F)(F)F)cc3)C(=O)N(C)CC(=O)N[C@@H](CCc3ccc(Cl)c(Cl)c3)C(=O)N2C1 [PP1217] | AA (a compound having 20 or more is denoted as AA) | 17.8 | A (a compound having 10 or more and less than 20 is denoted as A) |
| CCCCCC[C@H]1C(=O)N[C@@H]([C@@H](C)CC)C(=O)N(C)CC(=O)N(C)[C@H]2C/C=C\CCN(C2=O)[C@@H](Cc2ccc(C(F)(F)F)cc2)C(=O)N(C)CC(=O)N[C@@H](CCc2ccc(Cl)c(Cl)c2)C(=O)N2C[C@H](OCC)C[C@H]2C(=O)NC2(CCC2)C(=O)N(C)[C@@H](C(CC)CC)C(=O)N(C)[C@H](C(=O)N(C)C)CC(=O)N1C [PP1218] | AA (a compound having 20 or more is denoted as AA) | 67.9 | A (a compound having 10 or more and less than 20 is denoted as A) |
| CCO[C@@H]1C[C@H]2C(=O)NC3(CCC3)C(=O)N(C)[C@@H](C(CC)CC)C(=O)N(C)[C@H](C(=O)N(C)C)CC(=O)N(C)[C@@H](CC3CC3)C(=O)N[C@@H]([C@@H](C)CC)C(=O)N(C)CC(=O)N(C)[C@H]3C/C=C\CCN(C3=O)[C@@H](Cc3ccc(C(F)(F)F)cc3)C(=O)N(C)CC(=O)N[C@@H](CCc3ccc(Cl)c(Cl)c3)C(=O)N2C1 [PP1219] | AA (a compound having 20 or more is denoted as AA) | 21.4 | A (a compound having 10 or more and less than 20 is denoted as A) |
| CCO[C@@H]1C[C@H]2C(=O)NC3(CCC3)C(=O)N(C)[C@@H](C(CC)CC)C(=O)N(C)[C@H](C(=O)N(C)C)CC(=O)N(C)[C@@H](CC3CCCC3)C(=O)N[C@@H]([C@@H](C)CC)C(=O)N(C)CC(=O)N(C)[C@H]3C/C=C\CCN(C3=O)[C@@H](Cc3ccc(C(F)(F)F)cc3)C(=O)N(C)CC(=O)N[C@@H](CCc3ccc(Cl)c(Cl)c3)C(=O)N2C1 [PP1220] | AA (a compound having 20 or more is denoted as AA) | 22.2 | A (a compound having 10 or more and less than 20 is denoted as A) |
| CCO[C@@H]1C[C@H]2C(=O)NC3(CCC3)C(=O)N(C)[C@@H](C(CC)CC)C(=O)N(C)[C@H](C(=O)N(C)C)CC(=O)N(C)[C@@H](COC)C(=O)N[C@@H]([C@@H](C)CC)C(=O)N(C)CC(=O)N(C)[C@H]3C/C=C\CCN(C3=O)[C@@H](Cc3ccc(C(F)(F)F)cc3)C(=O)N(C)CC(=O)N[C@@H](CCc3ccc(Cl)c(Cl)c3)C(=O)N2C1 [PP1221] | AA (a compound having 20 or more is denoted as AA) | 40.6 | A (a compound having 10 or more and less than 20 is denoted as A) |
| CCO[C@@H]1C[C@H]2C(=O)NC3(CCC3)C(=O)N(C)[C@@H](C(CC)CC)C(=O)N(C)[C@H](C(=O)N(C)C)CC(=O)N(C)[C@@H](C)C(=O)N[C@@H]([C@@H](C)CC)C(=O)N(C)CC(=O)N(C)[C@H]3C/C=C\CCN(C3=O)[C@@H](Cc3ccc(C(F)(F)F)cc3)C(=O)N(C)CC(=O)N[C@@H](CCc3ccc4sccc4c3)C(=O)N2C1 [PP1222] | A (a compound having 10 or more and less than 20 is denoted as A) | 301 | A (a compound having 10 or more and less than 20 is denoted as A) |
| CCO[C@@H]1C[C@H]2C(=O)NC3(CCC3)C(=O)N(C)[C@@H](C(CC)CC)C(=O)N(C)[C@H](C(=O)N(C)C)CC(=O)N(C)[C@@H](CC)C(=O)N[C@@H]([C@@H](C)CC)C(=O)N(C)CC(=O)N(C)[C@H]3C/C=C\CCN(C3=O)[C@@H](Cc3ccc(C(F)(F)F)cc3)C(=O)N(C)CC(=O)N[C@@H](CCc3ccc4sccc4c3)C(=O)N2C1 [PP1223] | AA (a compound having 20 or more is denoted as AA) | 117 | A (a compound having 10 or more and less than 20 is denoted as A) |
| CCC[C@H]1C(=O)N[C@@H]([C@@H](C)CC)C(=O)N(C)CC(=O)N(C)[C@H]2C/C=C\CCN(C2=O)[C@@H](Cc2ccc(C(F)(F)F)cc2)C(=O)N(C)CC(=O)N[C@@H](CCc2ccc3sccc3c2)C(=O)N2C[C@H](OCC)C[C@H]2C(=O)NC2(CCC2)C(=O)N(C)[C@@H](C(CC)CC)C(=O)N(C)[C@H](C(=O)N(C)C)CC(=O)N1C [PP1224] | A (a compound having 10 or more and less than 20 is denoted as A) | 122 | A (a compound having 10 or more and less than 20 is denoted as A) |
| CCO[C@@H]1C[C@H]2C(=O)NC3(CCC3)C(=O)N(C)[C@@H](C(CC)CC)C(=O)N(C)[C@H](C(=O)N(C)C)CC(=O)N(C)[C@@H](CC(C)C)C(=O)N[C@@H]([C@@H](C)CC)C(=O)N(C)CC(=O)N(C)[C@H]3C/C=C\CCN(C3=O)[C@@H](Cc3ccc(C(F)(F)F)cc3)C(=O)N(C)CC(=O)N[C@@H](CCc3ccc4sccc4c3)C(=O)N2C1 [PP1225] | AA (a compound having 20 or more is denoted as AA) | 92.5 | A (a compound having 10 or more and less than 20 is denoted as A) |
| CCCCCC[C@H]1C(=O)N[C@@H]([C@@H](C)CC)C(=O)N(C)CC(=O)N(C)[C@H]2C/C=C\CCN(C2=O)[C@@H](Cc2ccc(C(F)(F)F)cc2)C(=O)N(C)CC(=O)N[C@@H](CCc2ccc3sccc3c2)C(=O)N2C[C@H](OCC)C[C@H]2C(=O)NC2(CCC2)C(=O)N(C)[C@@H](C(CC)CC)C(=O)N(C)[C@H](C(=O)N(C)C)CC(=O)N1C [PP1226] | AA (a compound having 20 or more is denoted as AA) | 106 | A (a compound having 10 or more and less than 20 is denoted as A) |
